The experiment relates to Turnip Crinkle Virus (TCV). Briefly: Resistance of Arabidopsis to Turnip Crinkle Virus (coat protein immunoblot, symptoms). The class given is in vivo. The conditions noted are these: root pretreatment 1 μM. (In western blotting, separated proteins are transferred to a membrane and probed.)

SMILES strings stand for the structures. “Also recorded” adds a separate entry of the source.

With `CC1O[C@@H](O[C@@H](C)CCCCCCCCC(=O)O)C(O)C[C@H]1O` (stereo in doubt) [ascr #18, (10R)-(3′R,5′R-dihydroxy-6′S-methyl-(2H)-tetrahydropyran-2-yloxy)-undecanoic Acid], the “resistance to virulent TCV” value is “dramatically enhanced resistance; also recorded: enhanced basal resistance”. The “disease symptoms (chlorosis, lesions, suppression of inflorescent development)” value (6 dpi) is “greatly reduced”. The “systemic spread of the virus” value (distal leaves) is “largely abolished”. Further, the “viral replication (amount of viral coat protein)” value (inoculated and distal leaves, immune blot) is “greatly reduced”.

Source of the values: US12382888B2, “Compositions and methods for modulating immunity in plants” (Boyce Thompson Institute for Plant Research, Inc., priority 2013, dated 2025).
